Results on three compounds are retold here after US8563580B2, “Flavivirus inhibitors and methods for their use” (Georgetown University, priority 2008, dated 2013).

The subject of data set [1] is Dengue 2 replicon expressing BHK cells. As to the kind of experiment: Replicon inhibition assay (Renilla luciferase), Dengue 2 replicon expressing BHK cells. Format: cell-based, Dengue virus (DENV2). The note with it: for DENV2 BHK replicon inhibition (FIG. 2): 25 μM final concentration, 24 hours, BHK cells; for EC50: Dengue virus, BHK, 24 h. On the procedure: (§1) Baby Hamster Kidney (BHK) and African green monkey kidney epithelial cells (Vero) were cultured in Dulbecco's Modified Eagle Medium (DMEM) (Cellgro®; Mediatech, Inc., Manassas, Va.) supplemented with 10% fetal bovine serum, MEM nonessential amino acid (Cellgro®) (5 ml/liter), and Penicillin-Streptomycin (2.5 ml/liter). Dengue 2 replicon expressing BHK cells and WNV replicon expressing Vero cells were cultured in DMEM as described above containing additionally Geneticin or G418 (Fisher Scientific®, Pittsburgh, Pa.) to maintain the selective pressure of the replicon expressing cells.
(§2) Dengue 2 replicon expressing BHK cells and WNV replicon expressing Vero cells were plated 100 μl into a black 96 well plate (Greiner Bio-One; Monroe, N.C.) with 10^5 cells/ml concentrations. After 6 hours of incubation, 1 μl of each compound diluted in DMSO to 2.5 mM was added into each well to obtain a 25 μM as the final concentration. Cells were incubated at 37° C. in a humidified CO2 (5%) chamber for 24 hours. The media was then removed and the cells are washed with PBS before adding 20 μl of lysis buffer to each well. A Renilla luciferase assay was performed with the addition of 50 μl substrate (Promega Corporation; Madison, Wis.) with a 2 second delay and a 10 second measurement in a Centro LB 960 plate luminescence plate reader (Berthold Technologies; Oak Ridge, Tenn.). The data was analyzed and plotted with GraphPad Prism 5 (GraphPad Software, Inc.; La Jolla, Calif.).
Renilla luciferase activity was measured as described above 24 hours after the addition of the compounds.

The nature of data set [2]: Cytotoxicity assay (MTT), naïve BHK cells. Format: cell-based. The conditions noted are these: hamster, 18 hours incubation. The method, then: as §1
(§3) Naïve Vero cells were cultured in the presence of varying concentrations of the Compound 33, Compound 34, and Compound 35 to calculate CC50 values. In the same way, Compound 33, Compound 34, Compound 35, and Compound 36 were tested in BHK cells. Naïve BHK and Vero cells were prepared in 96-well plates as described above at various final concentrations. After 18 hours of incubation, 10 μl of MTT reagent (Chemicon; Temecula, Calif.) is added into each well. The cells were incubated for 2 hours before adding 100 μl of detergent and were read in a spectrophotometer as described in the manufacturer's protocol.

Data set [3] concerns WNV replicon expressing Vero cells. As to the kind of experiment: Replicon inhibition assay (Renilla luciferase), WNV replicon expressing Vero cells. In kind it is cell-based, West Nile virus (WNV). The note with it: for WNV replicon inhibition (FIG. 1): 25 μM final concentration, 24 hours, Vero cells; for EC50: West Nile virus, Vero, 24 h. On the procedure:
as §1, §2
Specifically, the cells were prepared as above and the concentration of the compounds were varied (see Table 2). Renilla luciferase activity was measured as described above 24 hours after the addition of the compounds.

A short description of data set [4]: Cytotoxicity assay (MTT), naïve Vero cells. In kind it is cell-based. The note with it: African green monkey, 18 hours incubation. The method, then:
as §1, §3

As to `Oc1c(CN2CCOCC2)cc(Cl)c2c1NCCC2` [Compound 36], in data set [1], the “DENV2 BHK replicon inhibition (FIG. 2)” value is given as “inhibitory” and the EC50 is 63.1 µM. The CC50 at 18 h in data set [2] turned out to be 220 µM.

Consider `CCN(CC)Cc1cc(Cl)c2cccnc2c1O` [Compound 35], for which, in data set [1], the “DENV2 BHK replicon inhibition (FIG. 2)” value was “inhibitory” and a half-maximal response (EC50) required 2.35 µM. This compound also displayed a CC50 at 18 h in data set [2] of 70.1 µM. Also, in data set [3], the “WNV replicon inhibition (FIG. 1)” value is reported as “inhibitory” and the midpoint of the response, the EC50, lay at 3.38 µM. Moreover, the CC50 at 18 h in data set [4] was 60.9 µM.

Regarding `Oc1c(CN2CCOCC2)cc(Cl)c2cccnc12` [Compound 34], in data set [1], the “DENV2 BHK replicon inhibition (FIG. 2)” value is on record as “inhibitory” and the EC50 came out at 35 µM. For the same compound, the CC50 at 18 h in data set [2] worked out at 170 µM. Further, in data set [3], the “WNV replicon inhibition (FIG. 1)” value was “inhibitory” and the EC50 came out at 14.3 µM. The compound also showed a CC50 at 18 h in data set [4] of 355 µM.
